Legend:
Lassa virus = assay: Antiviral activity against LASV infected in human A549 cells; type: functional, organism-based, Mammarenavirus lassaense
[1] = Inhibition of JUNV envelope glycoprotein-mediated late endosomal pH-dependent membrane fusion by cell-cell fusion reporter assay; conditions: Mammarenavirus juninense
[2] = Mammarenavirus lassaense, A549, read-out: IC50

Structure (SMILES)	IC50 (Lassa virus; [2]) [µM]	IC50 [1] [µM]	IC50 (Lassa virus; a549)
O=C(c1cc2ccccc2s1)N1CC(=O)N(Cc2ccc(Cl)cc2)C(Cc2ccccc2)C1 (configuration not stated)	2.1		
Cc1ccc(CN2C(=O)CN(C(=O)c3ccc(C)cc3)CC2CCc2ccccc2)cc1 (configuration not stated)	1.2		
COc1ccc(CN2C(=O)CN(C(=O)c3cc4ccccc4[nH]3)CC2CCc2ccccc2)cc1 (configuration not stated)	1.7		
COc1ccc(CN2C(=O)CN(C(=O)c3cc4ccccc4o3)CC2CCc2ccccc2)cc1 (configuration not stated)	1	0.2	
Cc1ccc(CN2C(=O)CNC[C@@H]2Cc2ccccc2)cc1			Not Active
Cc1ccc(CN2C(=O)CN(C(=O)c3cc4ccccc4o3)C[C@H]2Cc2ccccc2)cc1	3		
O=C(c1cc2ccccc2o1)N1CC(=O)N(Cc2cccc(C(F)(F)F)c2)C(Cc2ccccc2)C1 (configuration not stated)	1.8		
COc1ccc(CN2C(=O)CN(C(=O)c3cc4ccccc4[nH]3)CC2Cc2ccccc2)cc1 (configuration not stated)	1.2		
COc1ccc(C(=O)N2CC(=O)N(Cc3ccc(C)cc3)C(CCc3ccccc3)C2)cc1 (configuration not stated)	0.4		
COc1ccc(CN2C(=O)CN(C(=O)c3cc4ccccc4s3)CC2CCc2ccccc2)cc1 (configuration not stated)	0.5	0.2	
Cc1ccc(CN2C(=O)CN(Cc3cc4ccccc4o3)C[C@@H]2Cc2ccccc2)cc1	10		
CCC1CN(C(=O)c2cc3ccccc3o2)CC(=O)N1Cc1cccc(C(F)(F)F)c1 (configuration not stated)	1.6		
CCC1CN(C(=O)c2cc3ccccc3[nH]2)CC(=O)N1Cc1cccc(C(F)(F)F)c1 (configuration not stated)	2.4		
O=C(c1cc2ccccc2o1)N1CCN[C@@H](Cc2ccccc2)C1			Not Active
O=C(c1cc2ccccc2o1)N1CC(=O)N(Cc2ccc(Cl)cc2)C(Cc2ccccc2)C1 (configuration not stated)	0.8		
COc1ccc(CN2C(=O)CN(C(=O)c3cc4ccccc4o3)CC2Cc2ccccc2)cc1 (configuration not stated)	0.6		
Cc1ccc(CN2C(=O)CN(C(=O)c3cc4ccccc4o3)C[C@@H]2Cc2ccccc2)cc1	0.2		
Cc1ccc(CN2CCN(C(=O)c3cc4ccccc4o3)C[C@@H]2Cc2ccccc2)cc1	3.1		
Cc1ccc(CN2C(=O)CN(C(=O)c3cc4ccccc4o3)CC2Cc2ccccc2)cc1 (racemic)	0.8	0.2	

Source: ChEMBL document CHEMBL1151924, “Characterization of lassa virus cell entry inhibitors: determination of the active enantiomer by asymmetric synthesis” (Bioorg Med Chem Lett, 2009)
